In patent US7449617B2, “Plants with elevated levels of gallic acid/polyphenol oxidase and methods of generating such plants” (The Regents of the University of California, priority 2004, dated 2008):

Tested on: buffered rumen fluid
Assay: In vitro gas production technique: incubation of alfalfa hays in buffered rumen fluid with added tannins, net ammonium-N in supernatant
Set-up: species or system cows
Settings: for % Difference from control / Net ammonium-N in supernatant: 72 h; for Net ammonium-N in supernatant: 30 ml buffered rumen fluid, SD in parenthesis; for Effect on ammonia-N (in words): in vitro rumen fluid system, preliminary study
Description: A preliminary in vitro study was conducted to evaluate GA and TA (tannic acid) and to compare this with CT (a source of condensed tannins). The study utilized an in vitro gas production technique that has been established and validated at UC Davis. This system uses canulated cows as a rumen fluid donor. […] The reduction in protein degradation and ammonia nitrogen accumulation was dependant on type of tannins and levels used in each of the experiments. […] [table]

[1] = CUF101, tannin added at 2% DM, Experiment 1
[2] = CUF101, tannin added at 4% DM, Experiment 1
[3] = CUF101, tannin added at 5% DM, Experiment 2
[4] = CUF101, tannin added at 6% DM, Experiment 1
[5] = CUF101, tannin added at 10% DM, Experiment 2
[6] = CUF101, tannin added at 15% DM, Experiment 2
[7] = CUF101 alfalfa hay 200 mg, tannin added at 2% DM, Experiment 1
[8] = CUF101 alfalfa hay 200 mg, tannin added at 4% DM, Experiment 1
[9] = CUF101 alfalfa hay 200 mg, tannin added at 5% DM, Experiment 2
[10] = CUF101 alfalfa hay 200 mg, tannin added at 6% DM, Experiment 1
[11] = CUF101 alfalfa hay 200 mg, tannin added at 10% DM, Experiment 2
[12] = CUF101 alfalfa hay 200 mg, tannin added at 15% DM, Experiment 2
[13] = Sutter alfalfa hay 200 mg, tannin added at 2% DM, Experiment 1
[14] = Sutter alfalfa hay 200 mg, tannin added at 4% DM, Experiment 1
[15] = Sutter alfalfa hay 200 mg, tannin added at 5% DM, Experiment 2
[16] = Sutter alfalfa hay 200 mg, tannin added at 6% DM, Experiment 1
[17] = Sutter alfalfa hay 200 mg, tannin added at 10% DM, Experiment 2
[18] = Sutter alfalfa hay 200 mg, tannin added at 15% DM, Experiment 2
[19] = Sutter, tannin added at 2% DM, Experiment 1
[20] = Sutter, tannin added at 4% DM, Experiment 1
[21] = Sutter, tannin added at 5% DM, Experiment 2
[22] = Sutter, tannin added at 6% DM, Experiment 1
[23] = Sutter, tannin added at 10% DM, Experiment 2
[24] = Sutter, tannin added at 15% DM, Experiment 2

| SMILES | % Difference from control [1] | % Difference from control [2] | % Difference from control [3] | % Difference from control [4] | % Difference from control [5] | % Difference from control [6] | Net ammonium-N in supernatant [7] | Net ammonium-N in supernatant [8] | Net ammonium-N in supernatant [9] | Net ammonium-N in supernatant [10] | Net ammonium-N in supernatant [11] | Net ammonium-N in supernatant [12] | Net ammonium-N in supernatant [13] | Net ammonium-N in supernatant [14] | Net ammonium-N in supernatant [15] | Net ammonium-N in supernatant [16] | Net ammonium-N in supernatant [17] | Net ammonium-N in supernatant [18] | % Difference from control [19] | % Difference from control [20] | further results |
| --- | --- | --- | --- | --- | --- | --- | --- | --- | --- | --- | --- | --- | --- | --- | --- | --- | --- | --- | --- | --- | --- |
| O=C(O)c1cc(O)c(O)c(O)c1 [GA, 3,4,5-trihydroxybenzoic acid] | +3.20% | +4.92% | +1.68% | +5.63% | −1.33% | −3.54% | 3.610 (0.338) mg | 3.670 (0.404) mg | 3.450 (0.240) mg | 3.695 (0.305) mg | 3.348 (0.254) mg | 3.273 (0.234) mg | 3.540 (0.432) mg | 3.608 (0.564) mg | 3.415 (0.191) mg | 3.575 (0.431) mg | 3.348 (0.206) mg | 3.298 (0.177) mg | +0.48% | −2.41% | % Difference from control [21]: +0.21%; % Difference from control [22]: +1.48%; % Difference from control [23]: −1.76%; % Difference from control [24]: −3.23%; Effect on ammonia-N (in words): did not show any affect |
| O=C(OC[C@H]1O[C@@H](OC(=O)c2cc(O)c(O)c(OC(=O)c3cc(O)c(O)c(O)c3)c2)[C@H](OC(=O)c2cc(O)c(O)c(OC(=O)c3cc(O)c(O)c(O)c3)c2)[C@@H](OC(=O)c2cc(O)c(O)c(OC(=O)c3cc(O)c(O)c(O)c3)c2)[C@@H]1OC(=O)c1cc(O)c(O)c(OC(=O)c2cc(O)c(O)c(O)c2)c1)c1cc(O)c(O)c(OC(=O)c2cc(O)c(O)c(O)c2)c1 [TA, tannic acid] | −0.66% | −4.00% | −16.23% | −8.52% | −26.23% | −48.57% | 3.475 (0.269) mg | 3.358 (0.231) mg | 2.830 (0.435) mg | 3.200 (0.308) mg | 2.503 (0.177) mg | 1.745 (0.204) mg | 3.168 (0.737) mg | 3.250 (0.424) mg | 3.030 (0.167) mg | 2.998 (0.310) mg | 2.543 (0.208) mg | 1.888 (0.139) mg | −10.08% | −7.75% | % Difference from control [21]: −11.09%; % Difference from control [22]: −14.90%; % Difference from control [23]: −25.38%; % Difference from control [24]: −44.60%; Effect on ammonia-N (in words): effective in reducing ammonia-N |
